Reference: ChEMBL document CHEMBL5131409, “Synthesis and characterization of chiral 6-azaspiro[2.5]octanes as potent and selective antagonists of the M4 muscarinic acetylcholine receptor” (Bioorg Med Chem Lett, 2022)

Key:
[1] = Intrinsic clearance in human liver microsomes; assay type: ADME, Microsome; settings: read-out: CLH
[2] = molecular target: T1, Muscarinic acetylcholine receptor M2 (Homo sapiens, UniProt P08172); experiment: Inhibition of human muscarinic acetylcholine M2 receptor expressed in CHO cells co-expressing Gqi5 in the presence of acetylcholine at EC80 concentration by calcium mobilization assay; assay type: functional, cell-based
T1 sequence (P08172 whole entry): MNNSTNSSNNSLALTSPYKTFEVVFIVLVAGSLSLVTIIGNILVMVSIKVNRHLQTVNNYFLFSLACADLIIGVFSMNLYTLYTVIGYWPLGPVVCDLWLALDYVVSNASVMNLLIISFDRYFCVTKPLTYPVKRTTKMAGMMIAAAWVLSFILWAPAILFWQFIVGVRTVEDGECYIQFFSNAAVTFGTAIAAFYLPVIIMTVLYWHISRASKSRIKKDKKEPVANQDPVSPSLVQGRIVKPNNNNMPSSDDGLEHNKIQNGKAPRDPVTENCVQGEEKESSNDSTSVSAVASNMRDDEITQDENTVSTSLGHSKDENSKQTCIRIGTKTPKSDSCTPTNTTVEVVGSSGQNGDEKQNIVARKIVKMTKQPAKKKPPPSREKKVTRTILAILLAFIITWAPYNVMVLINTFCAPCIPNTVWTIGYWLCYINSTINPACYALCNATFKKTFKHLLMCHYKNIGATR

Cytochrome P450 3A4 = Cytochrome P450 3A4 (Homo sapiens, UniProt P08684); experiment: Inhibition of CYP3A4 in human liver microsomes using cocktail of isoform-specific probe substrate; assay type: ADME, Microsome
Cytochrome P450 1A2 = molecular target: T2, Cytochrome P450 1A2 (Homo sapiens, UniProt P05177); experiment: Inhibition of CYP1A2 in human liver microsomes using cocktail of isoform-specific probe substrate; assay type: ADME, Microsome
T2 sequence (P05177 whole entry): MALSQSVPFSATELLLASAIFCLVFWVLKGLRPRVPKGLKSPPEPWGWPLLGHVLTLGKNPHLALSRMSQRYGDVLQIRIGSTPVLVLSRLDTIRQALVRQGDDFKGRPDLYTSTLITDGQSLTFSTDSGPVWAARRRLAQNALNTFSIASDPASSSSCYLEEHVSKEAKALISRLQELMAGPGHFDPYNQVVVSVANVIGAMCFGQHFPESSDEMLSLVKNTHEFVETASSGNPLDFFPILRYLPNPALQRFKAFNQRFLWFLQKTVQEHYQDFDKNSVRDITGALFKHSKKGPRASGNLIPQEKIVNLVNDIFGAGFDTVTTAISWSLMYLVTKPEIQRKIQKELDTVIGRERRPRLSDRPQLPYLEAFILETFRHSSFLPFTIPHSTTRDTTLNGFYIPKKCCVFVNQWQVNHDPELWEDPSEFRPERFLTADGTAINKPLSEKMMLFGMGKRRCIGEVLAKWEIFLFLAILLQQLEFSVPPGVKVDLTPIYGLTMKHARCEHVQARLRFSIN

[3] = molecular target: T3, Muscarinic acetylcholine receptor M4 (Homo sapiens, UniProt P08173); experiment: Inhibition of human muscarinic acetylcholine M4 receptor expressed in CHO cells co-expressing Gqi5 in the presence of acetylcholine at EC80 concentration by calcium mobilization assay; assay type: functional, cell-based
T3 sequence (P08173 whole entry): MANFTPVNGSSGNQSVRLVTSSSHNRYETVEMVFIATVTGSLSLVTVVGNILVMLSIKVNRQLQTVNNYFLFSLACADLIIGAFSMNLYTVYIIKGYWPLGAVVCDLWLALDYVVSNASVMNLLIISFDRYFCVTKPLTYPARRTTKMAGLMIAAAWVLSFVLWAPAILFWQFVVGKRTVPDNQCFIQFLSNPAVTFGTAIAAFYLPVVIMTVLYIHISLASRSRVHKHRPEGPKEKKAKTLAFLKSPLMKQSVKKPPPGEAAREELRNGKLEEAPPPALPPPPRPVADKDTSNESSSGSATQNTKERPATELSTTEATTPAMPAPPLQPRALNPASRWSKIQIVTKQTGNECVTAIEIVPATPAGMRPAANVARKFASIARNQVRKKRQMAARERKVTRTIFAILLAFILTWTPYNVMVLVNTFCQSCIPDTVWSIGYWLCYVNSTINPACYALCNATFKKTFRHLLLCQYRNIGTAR

[4] = Selectivity ratio of IC50 for inhibition of human muscarinic acetylcholine M2 receptor to IC50 for inhibition of human muscarinic acetylcholine M4 receptor expressed in CHO cells co-expressing Gqi5 in the presence of acetylcholine at EC80 concentration by calcium mobilization assay; assay type: cell-based
Cytochrome P450 2C9 = Cytochrome P450 2C9 (Homo sapiens, UniProt P11712); experiment: Inhibition of CYP2C9 in human liver microsomes using cocktail of isoform-specific probe substrate; assay type: ADME, Microsome
[5] = molecular target: T4, Muscarinic acetylcholine receptor M4 (Homo sapiens) (UniProt P08173); experiment: Antagonist activity at human muscarinic acetylcholine M4 receptor expressed in CHO cells co-expressing Gqi5 assessed as minimal acetylcholine response by calcium mobilization assay relative to control; assay type: functional, cell-based; design: scale not given: the % may be the effect or the level left; settings: filed as antagonist
T4 sequence (whole entry): T3 sequence (P08173 whole entry)

Cytochrome P450 2D6 = Cytochrome P450 2D6 (Homo sapiens, UniProt P10635); experiment: Inhibition of CYP2D6 in human liver microsomes using cocktail of isoform-specific probe substrate; assay type: ADME, Microsome
[6] = molecular target: T5, Muscarinic acetylcholine receptor M4 (Rattus norvegicus) (UniProt P08485); experiment: Antagonist activity at rat muscarinic acetylcholine M4 receptor expressed in CHO cells co-expressing Gqi5 assessed as minimal acetylcholine response by calcium mobilization assay relative to control; assay type: functional, cell-based; design: scale not given: the % may be the effect or the level left; settings: filed as antagonist
T5 sequence (whole entry): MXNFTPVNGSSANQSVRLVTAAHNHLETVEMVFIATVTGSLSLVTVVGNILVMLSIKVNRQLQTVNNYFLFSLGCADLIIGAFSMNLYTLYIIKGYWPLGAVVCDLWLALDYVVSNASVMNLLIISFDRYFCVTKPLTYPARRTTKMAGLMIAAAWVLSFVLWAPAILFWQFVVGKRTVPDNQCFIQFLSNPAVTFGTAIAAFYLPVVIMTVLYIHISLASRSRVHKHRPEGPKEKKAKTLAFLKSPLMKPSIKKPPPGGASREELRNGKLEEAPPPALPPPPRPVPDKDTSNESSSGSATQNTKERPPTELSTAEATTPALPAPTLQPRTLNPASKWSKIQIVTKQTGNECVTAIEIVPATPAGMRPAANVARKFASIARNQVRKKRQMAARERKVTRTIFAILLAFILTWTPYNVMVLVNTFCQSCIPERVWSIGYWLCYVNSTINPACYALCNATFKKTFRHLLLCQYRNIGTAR

[7] = molecular target: T6, Muscarinic acetylcholine receptor M4 (Rattus norvegicus, UniProt P08485); experiment: Inhibition of rat muscarinic acetylcholine M4 receptor expressed in CHO cells co-expressing Gqi5 in the presence of acetylcholine at EC80 concentration by calcium mobilization assay; assay type: functional, cell-based
T6 sequence (P08485 whole entry): T5 sequence (whole entry)

hERG (KCNH2) = hERG (KCNH2) (Homo sapiens, UniProt Q12809); experiment: Inhibition of hERG at 10 uM by patch clamp method relative to control; assay type: toxicity
Chain of hERG (KCNH2) (Q12809 whole entry): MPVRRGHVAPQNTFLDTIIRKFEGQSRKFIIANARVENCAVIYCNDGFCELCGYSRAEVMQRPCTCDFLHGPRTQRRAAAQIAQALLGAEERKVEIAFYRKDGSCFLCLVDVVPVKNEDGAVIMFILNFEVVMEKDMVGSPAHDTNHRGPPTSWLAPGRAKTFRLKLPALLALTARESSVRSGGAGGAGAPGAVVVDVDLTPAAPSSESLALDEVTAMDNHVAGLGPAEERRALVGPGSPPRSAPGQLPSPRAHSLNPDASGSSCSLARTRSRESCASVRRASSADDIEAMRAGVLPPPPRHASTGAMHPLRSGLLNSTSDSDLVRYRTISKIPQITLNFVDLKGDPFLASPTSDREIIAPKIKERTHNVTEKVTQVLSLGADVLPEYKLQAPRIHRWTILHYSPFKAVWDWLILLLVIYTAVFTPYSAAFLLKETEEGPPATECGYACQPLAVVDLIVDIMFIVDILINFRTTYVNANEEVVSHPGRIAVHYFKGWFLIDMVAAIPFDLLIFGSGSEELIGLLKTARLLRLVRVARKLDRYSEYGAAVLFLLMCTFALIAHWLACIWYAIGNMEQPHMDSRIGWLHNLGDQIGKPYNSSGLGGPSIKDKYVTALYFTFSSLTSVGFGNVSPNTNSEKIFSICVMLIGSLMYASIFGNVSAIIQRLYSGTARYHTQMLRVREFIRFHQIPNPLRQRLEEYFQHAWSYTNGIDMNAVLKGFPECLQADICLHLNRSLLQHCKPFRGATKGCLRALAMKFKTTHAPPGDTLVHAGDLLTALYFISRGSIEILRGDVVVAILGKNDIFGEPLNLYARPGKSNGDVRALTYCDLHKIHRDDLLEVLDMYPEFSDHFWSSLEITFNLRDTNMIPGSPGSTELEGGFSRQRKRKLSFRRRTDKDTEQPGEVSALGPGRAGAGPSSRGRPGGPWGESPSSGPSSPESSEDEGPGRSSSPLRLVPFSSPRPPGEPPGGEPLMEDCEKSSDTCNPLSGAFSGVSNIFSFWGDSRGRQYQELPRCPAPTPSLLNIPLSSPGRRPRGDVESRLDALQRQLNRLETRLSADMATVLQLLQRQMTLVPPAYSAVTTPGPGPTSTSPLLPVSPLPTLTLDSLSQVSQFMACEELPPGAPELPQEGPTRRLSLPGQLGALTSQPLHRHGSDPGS

Chain of Cytochrome P450 2C9 (P11712 whole entry, canonical isoform): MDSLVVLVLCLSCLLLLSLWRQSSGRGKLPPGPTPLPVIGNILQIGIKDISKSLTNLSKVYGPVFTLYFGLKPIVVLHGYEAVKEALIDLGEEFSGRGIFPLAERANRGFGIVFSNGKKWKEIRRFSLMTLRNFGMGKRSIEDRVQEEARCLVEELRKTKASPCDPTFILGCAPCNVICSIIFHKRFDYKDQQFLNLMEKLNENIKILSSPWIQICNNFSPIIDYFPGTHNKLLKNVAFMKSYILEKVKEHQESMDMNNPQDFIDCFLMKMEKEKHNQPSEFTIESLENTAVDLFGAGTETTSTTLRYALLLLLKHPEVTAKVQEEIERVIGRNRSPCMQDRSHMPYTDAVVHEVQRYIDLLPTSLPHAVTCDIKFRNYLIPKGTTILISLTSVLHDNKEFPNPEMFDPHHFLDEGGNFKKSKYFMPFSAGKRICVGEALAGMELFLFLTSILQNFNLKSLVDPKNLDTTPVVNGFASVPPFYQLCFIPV
Chain of Cytochrome P450 2D6 (P10635 whole entry, canonical isoform): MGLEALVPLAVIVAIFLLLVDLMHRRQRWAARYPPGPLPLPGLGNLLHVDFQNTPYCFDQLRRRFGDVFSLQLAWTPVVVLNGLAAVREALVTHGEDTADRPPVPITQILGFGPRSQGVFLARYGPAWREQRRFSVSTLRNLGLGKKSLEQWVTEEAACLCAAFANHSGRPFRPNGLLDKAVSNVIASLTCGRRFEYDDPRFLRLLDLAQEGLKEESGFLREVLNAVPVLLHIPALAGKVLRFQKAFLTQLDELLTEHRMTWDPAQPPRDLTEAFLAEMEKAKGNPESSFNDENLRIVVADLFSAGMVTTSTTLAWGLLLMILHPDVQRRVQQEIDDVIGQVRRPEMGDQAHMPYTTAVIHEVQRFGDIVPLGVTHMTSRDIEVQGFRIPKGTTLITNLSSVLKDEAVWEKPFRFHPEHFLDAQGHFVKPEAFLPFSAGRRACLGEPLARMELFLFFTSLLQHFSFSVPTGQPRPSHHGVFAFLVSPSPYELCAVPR
Chain of Cytochrome P450 3A4 (P08684 whole entry, canonical isoform): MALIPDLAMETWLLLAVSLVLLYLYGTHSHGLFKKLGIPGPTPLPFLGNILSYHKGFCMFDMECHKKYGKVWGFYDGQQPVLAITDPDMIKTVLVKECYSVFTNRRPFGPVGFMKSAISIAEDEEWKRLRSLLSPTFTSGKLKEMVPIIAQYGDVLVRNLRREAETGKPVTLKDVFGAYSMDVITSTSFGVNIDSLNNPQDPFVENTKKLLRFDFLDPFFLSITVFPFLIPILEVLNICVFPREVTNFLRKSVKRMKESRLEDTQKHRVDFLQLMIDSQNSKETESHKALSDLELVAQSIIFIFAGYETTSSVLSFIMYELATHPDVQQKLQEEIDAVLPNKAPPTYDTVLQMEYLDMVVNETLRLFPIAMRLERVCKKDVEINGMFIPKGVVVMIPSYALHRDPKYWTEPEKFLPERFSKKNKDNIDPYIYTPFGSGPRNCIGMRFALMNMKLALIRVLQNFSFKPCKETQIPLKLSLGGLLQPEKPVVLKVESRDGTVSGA

| Structure (SMILES) | predicted hepatic clearance [1] [mL/min/kg] | IC50 [2] [nM] | IC50 (Cytochrome P450 3A4) [nM] | IC50 (Cytochrome P450 1A2) [nM] | IC50 [3] [nM] | IC50 (Cytochrome P450 2C9) [nM] | Activity [5] [%] | IC50 (Cytochrome P450 2D6) [nM] | Activity ([5]; tested as the 2H-labelled form) [%] | Ratio IC50 [4] | Activity [6] [%] | IC50 [7] [nM] | inhibition at 10 µM (hERG (KCNH2)) [%] | Ratio IC50 ([4]; tested as the 2H-labelled form) |
| --- | --- | --- | --- | --- | --- | --- | --- | --- | --- | --- | --- | --- | --- | --- |
| Fc1ccc(Cl)c(-c2ccc(NC[C@H]3CC34CCN(CC3CCCCC3)CC4)nn2)c1 |  |  |  |  | 28 |  | 3.7 |  |  |  | 4.4 | 530 |  |  |
| Fc1ccc(Cl)c(-c2ccc(NCC3CC34CCN(CC3CCCCC3)CC4)nn2)c1 (stereo not given) |  |  |  |  | 18 |  |  |  |  |  |  |  |  |  |
| Fc1ccc(Cl)c(-c2ccc(NC3CC34CCN(CC3CCOCC3)CC4)nn2)c1 (racemic) |  |  |  |  | > 10000 |  |  |  |  |  |  |  |  |  |
| Fc1ccccc1-c1ccc(NC[C@@H]2CC23CCN(CC2CCOCC2)CC3)nn1 |  |  |  |  | 72 |  | 4.3 |  |  |  |  |  |  |  |
| Fc1ccc(Cl)c(-c2ccc(NC[C@@H]3CC34CCN(CC3CCCCC3)CC4)nn2)c1 |  |  |  |  | 12 |  | 2.6 |  |  |  | 4.3 | 81 |  |  |
| Fc1cc(F)c(F)c(-c2ccc(NC[C@@H]3CC34CCN(CC3CCOCC3)CC4)nn2)c1 | 8.4 | 1800 | > 30000 | > 30000 | 33 | > 30000 | 3 | 550 | 3.3 | 55 |  |  | 99 | 70 |
| [2H]C([2H])(C1CCOCC1)N1CCC2(CC1)C[C@H]2CNc1ccc(-c2cc(F)cc(F)c2F)nn1 | 11 | 3000 | 27600 | > 30000 | 42 | > 30000 |  | > 30000 |  |  |  |  | 98 |  |
| c1ccc(-c2ccc(NC[C@@H]3CC34CCN(CC3CCOCC3)CC4)nn2)cc1 | 8 | > 10000 | > 30000 | > 30000 | 120 | > 30000 | 3.5 | 2500 |  | > 80 |  |  |  |  |
| Fc1ccc(-c2ccc(NC[C@@H]3CC34CCN(CC3CCOCC3)CC4)nn2)cc1 |  |  |  |  | 280 |  | 4.1 |  |  |  |  |  |  |  |
| Cn1cc2cc(-c3ccc(NC[C@@H]4CC45CCN(CC4CCOCC4)CC5)nn3)ccc2n1 | 5.9 | 6200 | > 30000 | > 30000 | 130 | > 30000 | 3.6 | 19900 |  | 50 |  |  |  |  |

Now from value to molecule, other results behind:

| predicted hepatic clearance [1] [mL/min/kg] | IC50 [2] [nM] | IC50 (Cytochrome P450 3A4) [nM] | IC50 (Cytochrome P450 1A2) [nM] | IC50 [3] [nM] | IC50 (Cytochrome P450 2C9) [nM] | Activity [5] [%] | IC50 (Cytochrome P450 2D6) [nM] | Activity ([5]; tested as the 2H-labelled form) [%] | Structure (SMILES) | Ratio IC50 [4] | Activity [6] [%] | IC50 [7] [nM] | inhibition at 10 µM (hERG (KCNH2)) [%] | Ratio IC50 ([4]; tested as the 2H-labelled form) |
| --- | --- | --- | --- | --- | --- | --- | --- | --- | --- | --- | --- | --- | --- | --- |
| 10 | 2600 | 17000 | > 30000 | 52 | > 30000 | 3.5 | 1900 |  | Fc1ccc(F)c(-c2ccc(NC[C@@H]3CC34CCN(CC3CCOCC3)CC4)nn2)c1 | 60 |  |  |  |  |
|  |  |  |  | 54 |  | 4.2 |  |  | Fc1cccc(-c2ccc(NC[C@@H]3CC34CCN(CC3CCOCC3)CC4)nn2)c1 |  |  |  |  |  |
|  |  |  |  |  |  | 4.7 |  |  | Fc1ccc(Cl)c(-c2ccc(NCC3CC4(CCN(CC5CCOCC5)CC4)C3)nn2)c1 |  |  |  |  |  |
| 15 | 1600 | > 30000 | > 30000 | 1.8 | > 30000 | 4.5 | 5700 |  | Fc1ccc(Cl)c(-c2ccc(NC[C@@H]3CC34CCN(CC3CCOCC3)CC4)nn2)c1 | 900 |  |  |  |  |
|  |  |  |  | 2900 |  | 7.8 |  |  | Fc1ccc(Cl)c(-c2ccc(NC3CC4(C3)CN(CC3CCOCC3)C4)nn2)c1 |  |  |  |  |  |
